According to patent publication US20140155406A1, “4-IMIDAZOPYRIDAZIN-1-YL-BENZAMIDES AND 4-IMIDAZOTRIAZIN-1-YL-BENZAMIDES BTK INHIBITORS” (priority 2011, published 2014):

Columns and labels:
Type in all cases: biochemical
Lck enzyme = target: T1, Lck enzyme (Homo sapiens, UniProt P06239); assay: Lck enzyme activity, IMAP fluorescence polarization assay; conditions: 60 min pre-incubation, 6 μM ATP (Km)
T1 construct: purchased Millipore 14-442

FynT enzyme = target: T2, FynT enzyme (Homo sapiens, UniProt P06241); assay: FynT enzyme activity, IMAP fluorescence polarization assay; conditions: 60 min pre-incubation, 0.2 μM ATP (Km)
T2 construct: purchased Biomol SE-287
T2 sequence (P06241 1-534 isoform P06241-2): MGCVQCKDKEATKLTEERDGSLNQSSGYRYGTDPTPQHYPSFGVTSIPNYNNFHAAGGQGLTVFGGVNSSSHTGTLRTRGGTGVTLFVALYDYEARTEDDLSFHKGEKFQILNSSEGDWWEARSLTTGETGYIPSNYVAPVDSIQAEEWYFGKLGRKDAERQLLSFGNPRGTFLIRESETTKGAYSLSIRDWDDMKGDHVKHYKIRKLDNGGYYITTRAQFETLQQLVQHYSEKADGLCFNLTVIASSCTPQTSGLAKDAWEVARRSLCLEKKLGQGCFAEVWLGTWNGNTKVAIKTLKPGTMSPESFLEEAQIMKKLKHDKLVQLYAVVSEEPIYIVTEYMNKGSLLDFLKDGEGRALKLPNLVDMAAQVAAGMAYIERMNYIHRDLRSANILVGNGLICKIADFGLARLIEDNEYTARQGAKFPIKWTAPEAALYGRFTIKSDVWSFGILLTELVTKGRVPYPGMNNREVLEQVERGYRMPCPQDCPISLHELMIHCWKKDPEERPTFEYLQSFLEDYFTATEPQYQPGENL
Procedure, shortened: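 FynT (125 ng/mL final) pre-incubated 60 min at RT with compound (10 μM–0.316 nM, 1% DMSO) in pH 7.2 Tris/Mg/Mn buffer, then 100 nM fluorescein p34cdc2 peptide and 0.2 μM ATP (Km) for 2 h at RT. IMAP binding FP read at 535 nm; EC50 from curve fit versus ±ATP controls.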

Src enzyme = target: T3, Src enzyme (Homo sapiens, UniProt P12931); assay: Src enzyme activity, IMAP fluorescence polarization assay; conditions: 60 min pre-incubation, 4 μM ATP (Km)
T3 construct: purchased Millipore 14-326
T3 sequence (P12931 whole entry): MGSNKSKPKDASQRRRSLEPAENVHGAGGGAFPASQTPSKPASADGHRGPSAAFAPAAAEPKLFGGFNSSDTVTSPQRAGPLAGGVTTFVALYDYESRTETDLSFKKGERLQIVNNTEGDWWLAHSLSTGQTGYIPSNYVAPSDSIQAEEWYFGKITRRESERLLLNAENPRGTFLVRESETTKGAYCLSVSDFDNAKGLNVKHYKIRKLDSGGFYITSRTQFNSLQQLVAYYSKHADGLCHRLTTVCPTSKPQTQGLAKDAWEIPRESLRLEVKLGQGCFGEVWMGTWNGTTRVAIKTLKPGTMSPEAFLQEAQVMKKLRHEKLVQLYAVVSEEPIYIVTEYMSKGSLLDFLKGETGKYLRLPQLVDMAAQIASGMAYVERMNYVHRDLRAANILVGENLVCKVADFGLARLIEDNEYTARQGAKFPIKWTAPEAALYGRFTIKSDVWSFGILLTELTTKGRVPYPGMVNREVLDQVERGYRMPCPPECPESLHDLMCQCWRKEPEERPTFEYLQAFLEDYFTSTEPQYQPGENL
Procedure, shortened: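 Src at 0.2 U/mL final, pre-incubated 60 min at RT with compound (10 μM to 0.316 nM final, 1% DMSO) in pH 7.2 Tris/Mg/Mn buffer. Reaction with 100 nM fluorescein-p34cdc2 peptide and 4 μM ATP (Km) ran 2 h at RT, then IMAP binding and FP at 535 nm. EC50 from curve fit of % control.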

T1 sequence (P06239 whole entry): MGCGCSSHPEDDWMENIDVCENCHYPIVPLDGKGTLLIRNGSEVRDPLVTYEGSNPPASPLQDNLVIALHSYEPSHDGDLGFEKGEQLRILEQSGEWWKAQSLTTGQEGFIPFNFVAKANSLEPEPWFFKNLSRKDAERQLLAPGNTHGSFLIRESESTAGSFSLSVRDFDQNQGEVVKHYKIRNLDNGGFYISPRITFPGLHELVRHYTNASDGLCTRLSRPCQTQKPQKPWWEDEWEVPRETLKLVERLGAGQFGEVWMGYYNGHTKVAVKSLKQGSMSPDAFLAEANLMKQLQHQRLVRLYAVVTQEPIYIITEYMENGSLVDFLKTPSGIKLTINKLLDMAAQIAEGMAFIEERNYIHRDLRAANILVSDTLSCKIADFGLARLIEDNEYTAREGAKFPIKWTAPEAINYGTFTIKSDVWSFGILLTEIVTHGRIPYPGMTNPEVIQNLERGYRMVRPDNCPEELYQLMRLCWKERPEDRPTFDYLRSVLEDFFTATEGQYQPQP

Row | Structure (SMILES) | EC50 (Lck enzyme) [nM] | EC50 (FynT enzyme) [nM] | EC50 (Src enzyme) [nM]
1 | CC#CC(=O)N1CCCC[C@H]1c1nc(-c2ccc(C(=O)Nc3cc(C(F)(F)F)ccn3)cc2)c2c(C)nccn12 [Example 29, (S)-4-(3-(1-but-2-ynoylpiperidin-2-yl)-8-methylimidazo[1,5-a]pyrazin-1-yl)-N-(4-(trifluoromethyl)pyridin-2-yl)benzamide] | ≥ 1000 | ≥ 1000 | ≥ 1000
2 | CC#CC(=O)N(C)[C@@H](C)c1nc(-c2ccc(C(=O)Nc3cc(CCC)ccn3)cc2)c2c(C)nccn12 [Example 24, (S)-4-(8-methyl-3-(1-(N-methylbut-2-ynamido)ethyl)imidazo[1,5-a]pyrazin-1-yl)-N-(4-propylpyridin-2-yl)benzamide] | ≥ 1000 | ≥ 1000 | ≥ 1000
3 | CC#CC(=O)N1CCCC[C@H]1c1nc(-c2ccc(C(=O)Nc3cc(CCC)ccn3)cc2)c2c(C)nccn12 [Example 22, (S)-4-(3-(1-but-2-ynoylpiperidin-2-yl)-8-methylimidazo[1,5-a]pyrazin-1-yl)-N-(4-propylpyridin-2-yl)benzamide] | ≥ 1000 | ≥ 1000 | ≥ 1000
4 | C=CC(=O)N1CCC[C@H]1c1nc(-c2ccc(C(=O)Nc3cc(CCC)ccn3)cc2)c2c(C)nccn12 [Example 9, (S)-4-(3-(1-Acryloylpyrrolidin-2-yl)-8-methylimidazo[1,5-a]pyrazin-1-yl)-N-(4-propylpyridin-2-yl)benzamide] | ≥ 1000 | ≥ 1000 | ≥ 1000
5 | C=CC(=O)N[C@@H](C)c1nc(-c2ccc(C(=O)Nc3cc(CCC)ccn3)cc2)c2c(C)nccn12 [Example 23, (S)-4-(3-(1-acrylamidoethyl)-8-methylimidazo[1,5-a]pyrazin-1-yl)-N-(4-propylpyridin-2-yl)benzamide] | ≥ 1000 | ≥ 1000 | ≥ 1000
6 | CCCc1ccnc(NC(=O)c2ccc(-c3nc([C@H](C)NC(=O)/C=C/COC)n4ccnc(C)c34)cc2)c1 [Example 36, (S,E)-4-(3-(1-(4-methoxybut-2-enamido)ethyl)-8-methylimidazo[1,5-a]pyrazin-1-yl)-N-(4-propylpyridin-2-yl)benzamide] | ≥ 1000 | ≥ 1000 | ≥ 1000

More lines, now with the values ahead:

Row | EC50 (Lck enzyme) [nM] | EC50 (FynT enzyme) [nM] | EC50 (Src enzyme) [nM] | Structure (SMILES)
7 | ≥ 1000 | ≥ 1000 | ≥ 1000 | C=CC(=O)N1CCCC[C@H]1c1nc(-c2ccc(C(=O)Nc3cc(CCC)ccn3)cc2)c2c(C)nccn12 [Example 2, (S)-4-(3-(1-Acryloylpiperidin-2-yl)-8-methylimidazo[1,5-a]pyrazin-1-yl)-N-(4-propylpyridin-2-yl)benzamide]
8 | ≥ 1000 | ≥ 1000 | ≥ 1000 | CCCc1ccnc(NC(=O)c2ccc(-c3nc([C@@H]4CCCCN4C(=O)/C=C/CN(C)C)n4ccnc(C)c34)cc2)c1 [Example 3, (S,E)-4-(3-(1-(4-(Dimethylamino)but-2-enoyl)piperidin-2-yl)-8-methylimidazo[1,5-a]pyrazin-1-yl)-N-(4-propylpyridin-2-yl)benzamide]
9 | ≥ 1000 | ≥ 1000 | ≥ 1000 | CCCc1ccnc(NC(=O)c2ccc(-c3nc([C@@H]4CCCCN4C(=O)/C=C/CN4CCCC4)n4ccnc(C)c34)cc2)c1 [Example 35, (S,E)-4-(8-methyl-3-(1-(4-(pyrrolidin-1-yl)but-2-enoyl)piperidin-2-yl)imidazo[1,5-a]pyrazin-1-yl)-N-(4-propylpyridin-2-yl)benzamide]
